Laboratory results from patent US20230002334A1, “TRPM8 MODULATORS” (Givaudan SA, priority 2019, published 2023).
Counter-ions that a name gives are not always drawn.

target: T1, hTRPM8 (Homo sapiens, UniProt Q7Z2W7); assay: Assay on TRPM8 modulators: calcium imaging (Fluo-4, Flexstation) in HEK293 cell line stably expressing hTRPM8; assay type: cell-based; conditions: HEK293 cells stably expressing hTRPM8, calcium influx, sigmoidal dose-response fit; read-out: EC50
T1 construct: expressed in transfected cells
Experimental: A HEK293 cell line stably expressing hTRPM8 was generated according to Klein et al., (Chem. Senses 36: 649-658, 2011) and receptor activation was monitored by calcium imaging in a Flexstation. For Ca-imaging assays of TRPM8 channel activation, cells were seeded on day 0 at a density of 12000 cells per well in Dulbecco's modified Eagle medium (DMEM) containing 9% foetal bovine serum in black, clear bottom 96-well plates that had been coated with 0.001% polyethyleneimine (molecular weight=60 000, Acros Organics). On day 2, agonists were evaluated via calcium imaging using Fluo-4. Briefly, growth medium was discarded, and the cells were incubated in the dark for 1 h at 37° C. in 50 μL loading buffer consisting of 2.7 μM Fluo-4 AM (Invitrogen) and […] probenecid (Sigma-Aldrich) in DMEM (without serum). After incubation, the plates were washed five times with 100 μL of assay buffer (in mM: 130 NaCl, 5 KCl, 10 HEPES, 2 CaCl2, and 10 glucose, pH7.4.) and further incubated in the dark at room temperature for 30 min. The cells were then washed five times with 100 μL assay buffer and then calcium influx to serial dilutions of inventive compounds were measured in a Flexstation 3 (Molecular Devices). Receptor activation was initiated following addition of 20 μl of a 10-fold concentrated ligand stock solution, which is also prepared in assay buffer. Fluorescence was continuously monitored for 15 seconds prior to ligand addition and for 105 seconds after ligand addition, for a total of 120 seconds. Maximal receptor activation in relation to solvent control and relative to 31.6 μM menthol is determined. Data from serial dilutions were processed with a KNIME workflow to fit a sigmoidal dose-response curve and to extrapolate EC50 values.

T1 sequence (Q7Z2W7 whole entry): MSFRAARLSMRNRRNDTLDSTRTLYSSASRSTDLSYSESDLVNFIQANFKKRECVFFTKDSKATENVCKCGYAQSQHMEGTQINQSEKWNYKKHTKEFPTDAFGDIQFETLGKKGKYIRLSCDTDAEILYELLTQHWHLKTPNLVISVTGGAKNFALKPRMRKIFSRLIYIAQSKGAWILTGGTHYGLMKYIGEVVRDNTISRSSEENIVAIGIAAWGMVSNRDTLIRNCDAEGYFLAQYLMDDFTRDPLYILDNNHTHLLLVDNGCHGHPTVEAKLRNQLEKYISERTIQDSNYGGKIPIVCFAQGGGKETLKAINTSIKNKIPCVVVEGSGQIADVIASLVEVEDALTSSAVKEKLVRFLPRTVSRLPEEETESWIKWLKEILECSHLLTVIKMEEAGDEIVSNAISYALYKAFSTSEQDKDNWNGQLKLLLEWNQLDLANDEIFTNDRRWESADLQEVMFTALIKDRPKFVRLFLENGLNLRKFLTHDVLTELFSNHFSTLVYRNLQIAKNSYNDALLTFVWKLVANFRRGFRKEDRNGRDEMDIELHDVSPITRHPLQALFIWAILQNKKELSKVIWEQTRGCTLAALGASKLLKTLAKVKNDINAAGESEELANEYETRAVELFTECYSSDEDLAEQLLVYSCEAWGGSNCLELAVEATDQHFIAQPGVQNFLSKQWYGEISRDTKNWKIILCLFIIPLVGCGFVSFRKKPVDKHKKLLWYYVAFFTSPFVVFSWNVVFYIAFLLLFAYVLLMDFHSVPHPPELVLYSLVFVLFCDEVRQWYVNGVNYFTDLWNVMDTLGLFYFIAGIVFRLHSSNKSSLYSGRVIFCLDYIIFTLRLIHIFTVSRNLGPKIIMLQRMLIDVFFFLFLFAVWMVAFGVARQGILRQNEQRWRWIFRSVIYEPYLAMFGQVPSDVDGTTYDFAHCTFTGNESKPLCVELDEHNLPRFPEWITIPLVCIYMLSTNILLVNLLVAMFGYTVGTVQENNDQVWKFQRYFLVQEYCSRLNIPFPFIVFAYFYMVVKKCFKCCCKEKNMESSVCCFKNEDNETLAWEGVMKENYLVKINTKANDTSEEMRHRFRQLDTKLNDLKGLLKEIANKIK

Row | Compound | EC50 [nM]
1 | CSc1ccccc1[C@@]1(C)C[C@@H]2[C@@H]([C@@H](C)C1)N(C)OC2(C)C (racemic) [Compound 37, rac-(3aR,5R,7S,7aR)-1,3,3,5,7-pentamethyl-5-(2-(methylthio)phenyl)octahydrobenzo[c]isoxazole] | 50 to 300
2 | Cc1ccccc1[C@H]1C[C@@H]2[C@@H]([C@@H](C)C1)N(C(C)C)OC2(C)C (racemic) [Compound 63, rac-(3aR,5R,7S,7aR)-1-isopropyl-3,3,7-trimethyl-5-(o-tolyl)octahydrobenzo[c]isoxazole] | 300 to 1000
3 | Cc1ccc(Cl)cc1[C@@]1(C)C[C@@H]2[C@@H]([C@@H](C)C1)N(C)OC2(C)C (racemic) [Compound 105, rac-(3aR,5R,7S,7aR)-5-(5-chloro-2-methylphenyl)-1,3,3,5,7-pentamethyloctahydrobenzo[c]isoxazole] | < 50
4 | Cc1ccc(C#N)cc1[C@@]1(C)C[C@@H]2[C@@H]([C@@H](C)C1)N(C(C)C)OC2(C)C (racemic) [Compound 126, rac-3-((3aR,5R,7S,7aR)-1-isopropyl-3,3,5,7-tetramethyloctahydrobenzo[c]isoxazol-5-yl)-4-methylbenzonitrile] | 50 to 300
5 | Cc1cccc(C)c1[C@@]1(C)C[C@@H]2[C@@H]([C@@H](C)C1)N(C)OC2(C)C (racemic) [Compound 76, rac-(3aR,5R,7S,7aR)-5-(2,6-dimethylphenyl)-1,3,3,5,7-pentamethyloctahydrobenzo[c]isoxazole] | 300 to 1000
6 | Cc1ccc([C@H]2C[C@@H]3[C@@H]([C@@H](C)C2)N(C)OC3(C)C)c(C)c1 (racemic) [Compound 72, rac-(3aR,5R,7S,7aR)-5-(2,4-dimethylphenyl)-1,3,3,7-tetramethyloctahydrobenzo[c]isoxazole] | 50 to 300
7 | CCN1OC(C)(C)[C@@H]2C[C@](C)(CC=C(C)C)C[C@@H](C)[C@H]21 (racemic) [Compound 32, rac-(3aR,5R,7R,7aR)-1-ethyl-3,3,5,7-tetramethyl-5-(3-methylbut-2-en-1-yl)octahydrobenzo[c]isoxazole] | 1000 to 35000
8 | C[C@H]1C[C@@](C)(c2ccccc2F)C[C@@H]2[C@@H]1N(C)OC2(C)C (racemic) [Compound 81, rac-(3aR,5R,7S,7aR)-5-(2-fluorophenyl)-1,3,3,5,7-pentamethyloctahydrobenzo[c]isoxazole] | 50 to 300
9 | Cc1cc(C)cc([C@@]2(C)C[C@@H]3[C@@H]([C@@H](C)C2)N(C)OC3(C)C)c1 (racemic) [Compound 87, rac-(3aR,5R,7S,7aR)-5-(3,5-dimethylphenyl)-1,3,3,5,7-pentamethyloctahydrobenzo[c]isoxazole] | 300 to 1000
10 | Cc1ccncc1C1(C)CC(C)C2C(C1)C(C)(C)ON2C (stereo not drawn) [Compound 2, 1,3,3,5,7-pentamethyl-5-(4-methylpyridin-3-yl)octahydrobenzo[c]isoxazole] | 300 to 1000
11 | COc1ccc(OC)c(C2(C)CC(C)C3C(C2)C(C)(C)ON3C)c1 (stereo not drawn) [Compound 17, 5-(2,5-dimethoxyphenyl)-1,3,3,5,7-pentamethyloctahydrobenzo[c]isoxazole] | 50 to 300
12 | Cc1c(Cl)cccc1[C@H]1C[C@@H]2[C@@H]([C@@H](C)C1)N(C(C)C)OC2(C)C (racemic) [Compound 90, rac-(3aR,5R,7S,7aR)-5-(3-chloro-2-methylphenyl)-1-isopropyl-3,3,7-trimethyloctahydrobenzo[c]isoxazole] | 50 to 300
13 | CCN1OC(C)(C)[C@@H]2C[C@](C)(c3ccccc3C)C[C@@H](C)[C@H]21 (racemic) [Compound 33, rac-(3aR,5R,7R,7aR)-1-ethyl-3,3,5,7-tetramethyl-5-(o-tolyl)octahydrobenzo[c]isoxazole] | 300 to 1000
14 | Cc1cc(Cl)ccc1[C@H]1C[C@@H]2[C@@H]([C@@H](C)C1)N(C(C)C)OC2(C)C (racemic) [Compound 98, rac-(3aR,5R,7S,7aR)-5-(4-chloro-2-methylphenyl)-1-isopropyl-3,3,7-trimethyloctahydrobenzo[c]isoxazole] | 50 to 300
15 | C[C@@H]1C[C@@](C)(c2ccc(Cl)c(C#N)c2)C[C@H]2[C@H]1N(C)OC2(C)C (racemic) [Compound 122, rac-2-chloro-5-((3aS,5R,7R,7aS)-1,3,3,5,7-pentamethyloctahydrobenzo[c]isoxazol-5-yl)benzonitrile] | 1000 to 35000
16 | Cc1ccc(F)cc1[C@@]1(C)C[C@@H]2[C@@H]([C@@H](C)C1)N(C)OC2(C)C (racemic) [Compound 107, rac-(3aR,5R,7S,7aR)-5-(5-fluoro-2-methylphenyl)-1,3,3,5,7-pentamethyloctahydrobenzo[c]isoxazole] | < 50
17 | C[C@H]1C[C@@](C)(c2cc(F)cc(C(F)(F)F)c2)C[C@@H]2[C@@H]1N(C)OC2(C)C (racemic) [Compound 91, rac-(3aR,5R,7S,7aR)-5-(3-fluoro-5-(trifluoromethyl)phenyl)-1,3,3,5,7-pentamethyloctahydrobenzo[c]isoxazole] | 300 to 1000

Row | Compound | EC50 [nM]
18 | Cc1c(Cl)cccc1[C@]1(C)C[C@@H](C)[C@@H]2[C@@H](C1)C(C)(C)ON2C (racemic) [Compound 34, rac-(3aR,5R,7R,7aR)-5-(3-chloro-2-methylphenyl)-1,3,3,5,7-pentamethyloctahydrobenzo[c]isoxazole] | 300 to 1000
19 | Cc1cccc([C@@]2(C)C[C@@H]3[C@@H]([C@@H](C)C2)N(C)OC3(C)C)c1 (racemic) [Compound 43, rac-(3aR,5R,7S,7aR)-1,3,3,5,7-pentamethyl-5-(m-tolyl)octahydrobenzo[c]isoxazole] | 50 to 300
20 | CC(C)=CCC1(C)CC(C)C2C(C1)C(C)(C)ON2C(C)C (stereo not drawn) [Compound 10, 1-isopropyl-3,3,5,7-tetramethyl-5-(3-methylbut-2-en-1-yl)octahydrobenzo[c]isoxazole] | 300 to 1000
21 | C[C@H]1C[C@@H](c2ccccc2)C[C@@H]2[C@@H]1N(C)OC2(C)C (racemic) [Compound 52, rac-(3aR,5R,7S,7aR)-1,3,3,7-tetramethyl-5-phenyloctahydrobenzo[c]isoxazole] | 50 to 300
22 | CC1CC(C)[C@@H]2[C@@H](C1C)C(C)(C)ON2C (mixture of isomers) [Compound 114, rac-(3aR,7aR)-1,3,3,4,5,7-hexamethyloctahydrobenzo[c]isoxazole] | 1000 to 35000
23 | Cc1ccc(C#N)c([C@@]2(C)C[C@@H]3[C@@H]([C@@H](C)C2)N(C)OC3(C)C)c1 (racemic) [Compound 134, rac-4-methyl-2-((3aR,5R,7S,7aR)-1,3,3,5,7-pentamethyloctahydrobenzo[c]isoxazol-5-yl)benzonitrile] | 50 to 300
24 | CC1CC(C)C2C(C1)C(C)(C)ON2C (stereo not drawn) [Compound 5, 1,3,3,5,7-pentamethyloctahydrobenzo[c]isoxazole hydrochloride] | 1000 to 35000
25 | CC(C)CCC1CC(C)C2C(C1)C(C)(C)OCN2C (stereo not drawn) [Compound 22, 6-isopentyl-1,4,4,8-tetramethyloctahydro-2H-benzo[d][1,3]oxazine] | 1000 to 35000
26 | CCN1OC(C)(C)[C@@H]2C[C@](C)(c3ccccc3C)C[C@H](C)[C@H]21 (racemic) [Compound 54, rac-(3aR,5R,7S,7aR)-1-ethyl-3,3,5,7-tetramethyl-5-(o-tolyl)octahydrobenzo[c]isoxazole] | < 50
27 | Cc1cc(C)c([C@@]2(C)C[C@@H]3[C@@H]([C@@H](C)C2)N(C)OC3(C)C)cc1C (racemic) [Compound 38, rac-(3aR,5R,7S,7aR)-1,3,3,5,7-pentamethyl-5-(2,4,5-trimethylphenyl)octahydrobenzo[c]isoxazole] | 50 to 300
28 | CCN1OC(C)(C)[C@@H]2C[C@H](c3ccccc3OC)C[C@H](C)[C@H]21 (racemic) [Compound 57, rac-(3aR,5R,7S,7aR)-1-ethyl-5-(2-methoxyphenyl)-3,3,7-trimethyloctahydrobenzo[c]isoxazole] | < 50
29 | Cc1ccc(C#N)cc1[C@@]1(C)C[C@@H]2[C@@H]([C@@H](C)C1)N(C)OC2(C)C (stereo in doubt) [Compound 138, rel-4-methyl-3-((3aR,5R,7S,7aR)-1,3,3,5,7-pentamethyloctahydrobenzo[c]isoxazol-5-yl)benzonitrile] | < 50
30 | Cc1ccc(C(F)(F)F)cc1[C@@]1(C)C[C@@H]2[C@@H]([C@@H](C)C1)N(C)OC2(C)C (racemic) [Compound 39, rac-(3aR,5R,7S,7aR)-1,3,3,5,7-pentamethyl-5-(2-methyl-5-(trifluoromethyl)phenyl)octahydrobenzo[c]isoxazole] | 300 to 1000
31 | Cc1cc([C@@]2(C)C[C@@H]3[C@@H]([C@@H](C)C2)N(C)OC3(C)C)cs1 (racemic) [Compound 42, rac-(3aR,5R,7S,7aR)-1,3,3,5,7-pentamethyl-5-(5-methylthiophen-3-yl)octahydrobenzo[c]isoxazole] | 50 to 300
32 | Cc1cc(F)ccc1[C@H]1C[C@@H]2[C@@H]([C@@H](C)C1)N(C)OC2(C)C (racemic) [Compound 101, rac-(3aR,5R,7S,7aR)-5-(4-fluoro-2-methylphenyl)-1,3,3,7-tetramethyloctahydrobenzo[c]isoxazole] | 50 to 300
33 | CCCCC[C@@H]1CC[C@@H]2[C@@H](C1)C(C)(C)ON2C (racemic) [Compound 23, rac-(3aR,5R,7aR)-1,3,3-trimethyl-5-pentyloctahydrobenzo[c]isoxazole] | 300 to 1000
